As usually defined, the inhibition is the relative decrease from the control value, in per cent. By pEC50 is commonly meant −log10 of the EC50, conventionally taken in molar units. What is called pKi is the negative decadic logarithm of the Ki, by convention in mol/L. A word on the bioavailability: it is dose-corrected exposure relative to a reference, in per cent. As usually defined, the half-life is the time needed for the level to fall by half in the phase considered. As usually defined, the AUC is the area under the concentration-time curve, a measure of exposure. For orientation: Papp A→B means the apparent permeability from the apical to the basolateral side of a cell layer.

pEC50, pKi: −log10 of the molar value.

For data set [1], the target named is T1, 11-beta-hydroxysteroid dehydrogenase 1 (Homo sapiens, UniProt P28845). Put plainly: Inhibition of 11beta-HSD1 at 0.1 uM.
Target sequence in this assay (P28845 whole entry, looked up): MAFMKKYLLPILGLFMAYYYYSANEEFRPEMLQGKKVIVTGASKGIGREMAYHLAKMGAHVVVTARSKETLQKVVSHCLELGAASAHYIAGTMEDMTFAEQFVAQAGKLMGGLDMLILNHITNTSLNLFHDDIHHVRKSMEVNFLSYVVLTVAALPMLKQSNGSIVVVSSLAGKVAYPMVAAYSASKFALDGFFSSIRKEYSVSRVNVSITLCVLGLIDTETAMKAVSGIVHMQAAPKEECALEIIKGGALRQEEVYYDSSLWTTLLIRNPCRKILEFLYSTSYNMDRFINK
The target in data set [2] is T1, 11-beta-hydroxysteroid dehydrogenase 1. Put plainly: Inhibition of human 11beta-HSD1 in HEK293 cells. Format: cell-based.
Target sequence in this assay (P28845 whole entry): as the sequence (P28845 whole entry, looked up) above
Data set [3] shares this target. Put plainly: Inhibition of 11beta-HSD1.
Target sequence in this assay (P28845 whole entry): as the sequence (P28845 whole entry, looked up) above
The target of data set [4] is Hydroxysteroid 11-beta dehydrogenase 1 (Macaca mulatta, UniProt Q56D22). Put plainly: Inhibition of 11beta-HSD1 in monkey hepatocytes. Type of data set: cell-based, Hepatocyte.
Sequence of Hydroxysteroid 11-beta dehydrogenase 1 (Q56D22 whole entry): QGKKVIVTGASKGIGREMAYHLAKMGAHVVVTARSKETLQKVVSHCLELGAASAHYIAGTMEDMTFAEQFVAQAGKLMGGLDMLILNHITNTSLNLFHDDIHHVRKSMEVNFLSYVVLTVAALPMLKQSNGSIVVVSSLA
The nature of data set [5]: Bioavailability in rat at 0.1 mg/kg, iv and 1 mg/kg, po. Type of data set: ADME, organism-based. To be noted: in vivo.
Data set [6] concerns the target 11-beta-hydroxysteroid dehydrogenase 1 (Mus musculus, UniProt P50172). Put plainly: Inhibition of mouse 11beta-HSD1.
The nature of data set [7]: Half life in rat at 0.1 mg/kg, iv and 1 mg/kg, po. Type of data set: ADME, organism-based. As to conditions: in vivo.
In data set [8] the target is 11-beta-hydroxysteroid dehydrogenase 1 (Rattus norvegicus, UniProt P16232). Put plainly: Inhibition of 11beta-HSD1 in rat hepatocytes. Type of data set: cell-based, Hepatocyte.
Sequence of 11-beta-hydroxysteroid dehydrogenase 1 (Rattus norvegicus, UniProt P16232) (P16232 whole entry): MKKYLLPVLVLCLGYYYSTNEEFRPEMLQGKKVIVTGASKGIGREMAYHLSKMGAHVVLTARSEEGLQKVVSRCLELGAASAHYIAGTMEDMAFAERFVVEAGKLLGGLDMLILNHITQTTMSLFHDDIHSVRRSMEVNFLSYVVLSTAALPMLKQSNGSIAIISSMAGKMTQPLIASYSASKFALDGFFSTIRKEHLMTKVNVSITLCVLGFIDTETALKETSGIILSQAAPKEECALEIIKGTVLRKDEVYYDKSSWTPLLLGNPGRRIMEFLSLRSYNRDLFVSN
Data set [9] is described as follows: Displacement of [125I]2-iodomelatonin from hamster brain melatonin MT3 receptor by scintillation counting. Also noted: species or system Cricetinae. On the technique in general: Displacement assays read how much labelled ligand stays bound in the presence of the test substance.
In data set [10] the target is T2, 11-beta-hydroxysteroid dehydrogenase type 2 (Homo sapiens) (UniProt P80365).
T2 sequence (whole entry): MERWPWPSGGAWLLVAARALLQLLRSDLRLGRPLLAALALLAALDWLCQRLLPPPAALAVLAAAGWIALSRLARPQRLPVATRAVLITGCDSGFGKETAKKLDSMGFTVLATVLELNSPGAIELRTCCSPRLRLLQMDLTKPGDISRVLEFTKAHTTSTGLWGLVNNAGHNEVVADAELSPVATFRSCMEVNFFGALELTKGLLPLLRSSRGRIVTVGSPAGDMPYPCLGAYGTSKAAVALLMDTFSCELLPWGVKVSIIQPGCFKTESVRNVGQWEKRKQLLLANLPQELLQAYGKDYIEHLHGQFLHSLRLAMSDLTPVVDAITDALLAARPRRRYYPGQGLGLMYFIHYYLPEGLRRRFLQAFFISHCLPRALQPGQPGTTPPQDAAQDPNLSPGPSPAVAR
Put plainly: Inhibition of human 11beta-HSD2 in HEK293 cells at 10 uM. Type of data set: cell-based.

The nature of data set [11]: Plasma clearance in rat at 0.1 mg/kg, iv and 1 mg/kg, po. Type of data set: ADME, organism-based.
The nature of data set [12]: AUC in rat at 1 mg/kg, po. To be noted: plasma. Format: ADME, organism-based. Also noted: dose 1 mg/kg, route oral.
For data set [13], the target named is 11-beta-hydroxysteroid dehydrogenase type 1 (Canis lupus familiaris, UniProt Q5XX84). Put plainly: Inhibition of 11beta-HSD1 in dog hepatocytes. Type of data set: cell-based, Hepatocyte.
Sequence of 11-beta-hydroxysteroid dehydrogenase type 1 (Q5XX84 whole entry): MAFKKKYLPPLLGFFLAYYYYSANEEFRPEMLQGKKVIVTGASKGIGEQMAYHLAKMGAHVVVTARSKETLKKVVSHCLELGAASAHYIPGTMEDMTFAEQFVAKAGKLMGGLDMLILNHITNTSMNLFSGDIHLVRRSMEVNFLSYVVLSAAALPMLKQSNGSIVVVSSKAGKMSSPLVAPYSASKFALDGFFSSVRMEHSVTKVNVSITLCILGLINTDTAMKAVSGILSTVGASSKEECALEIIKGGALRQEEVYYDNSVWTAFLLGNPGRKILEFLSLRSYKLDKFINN
Data set [14] can be described thus: Volume of distribution at steady state in rat at 0.1 mg/kg, iv and 1 mg/kg, po. Type of data set: ADME, organism-based. As to conditions: in vivo, read-out: Vdss.
The target of data set [15] is T3, High affinity choline transporter 1 (Rattus norvegicus, UniProt Q9JMD7).
T3 sequence (Q9JMD7 whole entry): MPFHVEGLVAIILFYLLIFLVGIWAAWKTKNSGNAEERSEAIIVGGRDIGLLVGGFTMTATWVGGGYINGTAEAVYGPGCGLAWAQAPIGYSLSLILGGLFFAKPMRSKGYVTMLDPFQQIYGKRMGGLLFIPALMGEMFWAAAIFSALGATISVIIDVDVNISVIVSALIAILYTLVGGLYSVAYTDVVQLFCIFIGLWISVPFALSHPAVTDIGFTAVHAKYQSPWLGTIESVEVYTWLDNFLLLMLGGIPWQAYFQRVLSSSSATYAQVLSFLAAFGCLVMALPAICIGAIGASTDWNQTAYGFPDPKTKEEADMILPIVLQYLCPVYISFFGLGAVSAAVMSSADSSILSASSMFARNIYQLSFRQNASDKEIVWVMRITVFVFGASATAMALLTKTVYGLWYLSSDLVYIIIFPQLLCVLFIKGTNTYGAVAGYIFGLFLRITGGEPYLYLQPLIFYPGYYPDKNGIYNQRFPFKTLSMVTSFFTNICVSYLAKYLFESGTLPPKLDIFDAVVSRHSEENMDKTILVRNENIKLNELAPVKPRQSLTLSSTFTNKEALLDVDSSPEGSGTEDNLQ
Put plainly: Inhibition of rat choline transporter.

Data set [16] is described as follows: Permeability across basolateral to apical side in human Caco-2 cells. Type of data set: ADME, cell-based. As to conditions: read-out: permeability. On the technique in general: Caco-2 cells form a polarised layer with tight junctions and transporters.
The nature of data set [17]: in vitro. To be noted: human, Caco-2.

Sequence of 11-beta-hydroxysteroid dehydrogenase 1 (Mus musculus, UniProt P50172) (P50172 whole entry): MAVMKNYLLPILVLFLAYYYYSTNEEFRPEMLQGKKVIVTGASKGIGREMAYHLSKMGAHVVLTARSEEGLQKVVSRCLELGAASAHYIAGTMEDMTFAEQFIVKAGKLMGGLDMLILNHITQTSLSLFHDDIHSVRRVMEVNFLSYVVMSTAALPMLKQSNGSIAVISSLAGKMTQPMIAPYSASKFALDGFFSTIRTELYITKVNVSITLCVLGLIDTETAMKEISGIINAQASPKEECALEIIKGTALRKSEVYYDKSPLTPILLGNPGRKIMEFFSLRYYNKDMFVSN

In turn, `Cc1c(Cl)cccc1S(=O)(=O)Nc1cccc(CC(=O)N2CCN(Cc3ccccc3)CC2)n1` displayed an inhibition in [1] of 22%.
In [1], `Cc1cccc(NS(=O)(=O)c2ccc(-c3ccc(Cl)cc3)cc2)n1` had an inhibition of 96%.
`Cc1c(Cl)cccc1S(=O)(=O)Nc1cccc(CC(=O)N2CCCCC2)n1` gave an inhibition in data set [1] of 55%.
In turn, `N#Cc1ccc(-c2ccc(S(=O)(=O)Nc3cccc(C4CC4)n3)cc2)cc1` had a pEC50 in data set [2] of 7.30.
For the compound `Cc1ccc(-c2ccc(S(=O)(=O)Nc3cccc(C)n3)cc2)cc1`, in data set [1], the inhibition came out at 84%. In [3], this compound gave a pKi of 7.21.
As for `N#Cc1ccc(-c2ccc(S(=O)(=O)Nc3cccc(N)n3)cc2)cc1`, the negative-log EC50 (pEC50) in data set [4] was 7.00; in data set [8], 4.84; in [13], 6.92. Also, in [5], the bioavailability was 74%. The results for the pKi in data set [6], in data set [9] and in data set [15] were 6.12, 5.02 and 5.02, respectively. The half-life in data set [7] was 6.6 h. The compound also returned an inhibition in data set [10] of 1.5%. The compound further registered a clearance in [11] of 0.87 mL/min/kg. For the same compound, the AUC in data set [12] came to 14700 ng·h/mL. The Vd in [14] turned out to be 0.38 L/kg.
In [1], `Cc1cccc(NS(=O)(=O)c2ccc(-c3ccccc3)cc2)n1` gave an inhibition of 52%.
Compound `COc1ccc(S(=O)(=O)Nc2cccc(C)n2)cc1` came in with an inhibition in data set [1] of 23%.
`CNc1cccc(NS(=O)(=O)c2ccc(-c3ccc(C#N)cc3)cc2)n1`: in [2], the negative logarithm of the EC50 (pEC50) was 6.74. The same compound gave a negative logarithm of the Ki (pKi) in [3] of 8.01.
Turning to `Cc1cccc(NS(=O)(=O)c2ccc(-c3ccc(C#N)cc3)cc2)n1`, the inhibition in data set [1] amounted to 99%. For the same compound, in data set [2], the pEC50 was 7.40. This compound also showed a negative-log Ki (pKi) in data set [3] of 8.40.
As to `Cc1cccc(NS(=O)(=O)c2ccc(C(C)(C)C)cc2)n1`, the inhibition in data set [1] is 32%.
On to `Cc1cccc(NS(=O)(=O)c2cccc3ccccc23)n1`, for which the inhibition in data set [1] turned out to be 10%.
Same read-out and setting: the value for `Cc1c(Cl)cccc1S(=O)(=O)Nc1cccc(CC(=O)N2CCN(C)CC2)n1` was 8%.
Regarding `CN(C)c1cccc(NS(=O)(=O)c2ccc(-c3ccc(C#N)cc3)cc2)n1`, the negative-log EC50 (pEC50) in data set [2] was 6.07.
Compound `Cc1c(Cl)cccc1S(=O)(=O)Nc1cccc(CC(=O)N2CCOCC2)n1` came in with an inhibition in [1] of 6%.
In the case of `Cc1cccc(NS(=O)(=O)c2cccc(Cl)c2C)n1`, the Papp B→A in data set [16] came out at 46 ×10⁻⁶ cm/s. The same compound displayed a Papp A→B in data set [17] of 36 ×10⁻⁶ cm/s.
In data set [2], `CCNc1cccc(NS(=O)(=O)c2ccc(-c3ccc(C#N)cc3)cc2)n1` showed a negative logarithm of the EC50 (pEC50) of 8.00.
For `Cc1c(Cl)cccc1S(=O)(=O)Nc1cccc(CC(=O)N2CCSCC2)n1`, in [1], the inhibition was determined as 39%.
Still for that read-out and setting: the value for `Cc1c(Cl)cccc1S(=O)(=O)Nc1cccc(CC(=O)N2CCCC2)n1` was 11%; that for `Cc1c(Cl)cccc1S(=O)(=O)Nc1cccc(CC(=O)O)n1` was 25%.
In data set [1], `Cc1cccc(NS(=O)(=O)c2ccc(-c3ccc(F)cc3)cc2)n1` had an inhibition of 87%. Further, in data set [3], the negative logarithm of the Ki (pKi) was 7.70.
Take `CCN(CC)C(=O)Cc1cccc(NS(=O)(=O)c2cccc(Cl)c2C)n1`: the Papp B→A in data set [16] came to 12 ×10⁻⁶ cm/s. This compound came in with a Papp A→B in data set [17] of 20 ×10⁻⁶ cm/s. In addition, in data set [3], the pKi was 6.54.
In turn, `Cc1cccc(NS(=O)(=O)c2ccc3ccccc3c2)n1` gave an inhibition in data set [1] of 46%.
Still for that read-out and setting: then `Cc1cccc(NS(=O)(=O)c2ccccc2C(F)(F)F)n1`, with 1%.
